Measurements from patent publication EP2366702A1, “New oxadiazole derivatives” (Almirall, S.A., priority 2010, dated 2011).

What follows are compounds tested against S1P1 (Homo sapiens, UniProt P21453) (assay: 35S-GTPyS binding assay). Conditions: membranes; 10µM S1P used as 100% maximum efficacy; 90 min at room temperature.
Assay type: biochemical
Method: The effect of the compounds was measured using a 35S-GTPyS binding assay. Briefly, membranes were incubated in a buffer containing 20 mM HEPES pH 7.4, 100 mM NaCl, 10 mM MgCl2, 10µM GDP, 50µg/ml saponin and 0.2% fatty acid-free BSA at various concentrations (0.1nM-10µM) and 0.1nM 35S-GTPyS. 10µM S1P was used as 100% maximum efficacy. The assay was incubated for 90 min at room temperature with gentle mixing, and terminated by filtrating the reaction mixture through GF/C filter plates using the Manifold Filtration System. The filters were immediately washed with sodium phosphate pH 7.4 buffers. After drying the filter plate's scintillant liquid were added to each well and 35S-GTPyS binding was measured on a Trilux Scintillation Counter.

Sequence of S1P1 (P21453 whole entry, species assumed): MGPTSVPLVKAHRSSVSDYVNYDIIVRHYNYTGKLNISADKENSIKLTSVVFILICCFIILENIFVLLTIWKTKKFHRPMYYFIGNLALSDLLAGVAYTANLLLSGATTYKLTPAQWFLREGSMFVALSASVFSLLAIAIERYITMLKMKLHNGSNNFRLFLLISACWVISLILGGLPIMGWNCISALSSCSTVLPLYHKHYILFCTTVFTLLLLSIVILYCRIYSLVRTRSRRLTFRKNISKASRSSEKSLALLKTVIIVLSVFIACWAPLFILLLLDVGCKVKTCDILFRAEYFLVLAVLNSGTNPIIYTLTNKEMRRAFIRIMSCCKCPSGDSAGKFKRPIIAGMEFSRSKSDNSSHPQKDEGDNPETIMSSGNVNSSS

| SMILES | EC50 |
| --- | --- |
| Cc1cc(-c2noc(-c3nn(C)c4c3CCC(C)(C)C4)n2)cc(C)c1CCNCCn1cncn1 [Example 6, (2-{2,6-dimethyl-4-[5-(1,6,6-trimethyl-4,5,6,7-tetrahydro-1H-indazol-3-yl)-1,2,4-oxadiazol-3-yl]phenyl}ethyl)[2-(1H-1,2,4-triazol-1-yl)ethyl]amine] | 19.2 nM |
| Cc1cc(-c2noc(-c3nn(C)c4c3CCC(C)(C)C4)n2)cc(C)c1CCn1nccc1C(=O)O [Example 24, 1-(2-{2,6-dimethyl-4-[5-(1,6,6-trimethyl-4,5,6,7-tetrahydro-1H-indazol-3-yl)-1,2,4-oxadiazol-3-yl]phenyl}ethyl)-1H-pyrazole-5-carboxylic acid] | 10.3 nM |
| Cc1cc(-c2noc(-c3nn(C)c4c3CCC(C)(C)C4)n2)cc(C)c1CCn1cncn1 [Example 16, 3-(3-{3,5-dimethyl-4-[2-(1H-1,2,4-triazol-1-yl)ethyl]phenyl}-1,2,4-oxadiazol-5-yl)-1,6,6-trimethyl-4,5,6,7-tetrahydro-1H-indazole] | 12.1 nM |
| Cc1cc(-c2noc(-c3nn(C)c4c3CCC(C)(C)C4)n2)cc(C)c1CCC(C)(C)O [Example 17, 4-{2,6-dimethyl-4-[5-(1,6,6-trimethyl-4,5,6,7-tetrahydro-1H-indazol-3-yl)-1,2,4-oxadiazol-3-yl]phenyl}-2-methylbutan-2-ol] | 37.5 nM |

Stronger by EC50, values ahead:

| EC50 | SMILES |
| --- | --- |
| 6.37 nM | Cc1cc(-c2noc(-c3nn(C)c4c3CCC(C)(C)C4)n2)cc(C)c1CCn1cc(C(=O)O)cn1 [Example 22, 1-(2-{2,6-dimethyl-4-[5-(1,6,6-trimethyl-4,5,6,7-tetrahydro-1H-indazol-3-yl)-1,2,4-oxadiazol-3-yl]phenyl}ethyl)-1H-pyrazole-4-carboxylic acid] |
| 3.08 nM | Cc1cc(-c2noc(-c3nn(C)c4c3CCC(C)(C)C4)n2)cc(C)c1CCP(=O)(O)O [Example 21, (2-{2,6-dimethyl-4-[5-(1,6,6-trimethyl-4,5,6,7-tetrahydro-1H-indazol-3-yl)-1,2,4-oxadiazol-3-yl]phenyl}ethyl)phosphonic acid] |
| 1.99 nM | Cc1cc(-c2noc(-c3nn(C)c4c3CCC(C)(C)C4)n2)cc(C)c1CCNC(=O)CN [Example 2, N-1-(2-{2,6-dimethyl-4-[5-(1,6,6-trimethyl-4,5,6,7-tetrahydro-1H-indazol-3-yl)-1,2,4-oxadiazol-3-yl]phenyl}ethyl)glycinamide] |
